Reference: PMC5893132, “Selective inhibition of histamine-evoked Ca^2+ signals by compartmentalized cAMP in human bronchial airway smooth muscle cells” (Cell Calcium, 2018)
Structures can show the parent of a compound that is named as a salt.

How the values were obtained:
Format in all cases: cell-based, human
[1] = system: carbachol-evoked Ca^2+ signals in hBASMCs; assay: Carbachol-evoked Ca2+ signals in populations of fluo-4-loaded hBASMCs; details: cells treated with PTX 100 ng·mL^−1, 24 h; HBS
Protocol: Two methods were used to measure [Ca^2+]i in populations of hBASMCs. For measurements using a FlexStation III plate-reader (Molecular Devices, Sunnyvale, CA, USA), hBASMCs were seeded into 96-well plates (10^4 cells per well). After about 4 days, when the cells were confluent, the medium was replaced with SMGM-2 without serum or growth factor supplements, and the cells were used after a further 24 h. […] Cells were washed with HEPES-buffered saline (HBS: 135 mM NaCl, 5.9 mM KCl, 1.2 mM MgCl2, 1.5 mM CaCl2, 11.6 mM HEPES, 11.5 mM D-glucose, pH 7.3), and loaded with fluo-4 by incubation with fluo-4-AM (2 μM) in HBS (100 μL per well) containing pluronic F127 (0.02%, v/v) and probenecid (2.5 mM). After 1 h at 20 °C, the medium was replaced with HBS (100 μL per well) containing probenecid (2.5 mM). After a further incubation at 20 °C for 1 h, the medium was replaced with HBS (60–80 μL per well) or nominally Ca^2+-free HBS, and the cells were used immediately for experiments at 20 °C. […] Drug additions (20 μL at 4 or 5 times the final concentration) were added automatically. Fluorescence from fluo-4 (excitation 485 nm, emission 525 nm) was recorded at 1.44-s intervals using Softmax Pro 5.4 (Molecular Devices). Fluorescence was calibrated to [Ca^2+]i from: [Ca^2+]i=KDCa×(F−Fmin/Fmax−F) where, KDCa is the equilibrium dissociation constant of fluo-4 for Ca^2+ (345 nM), F is the recorded fluorescence, and Fmin and Fmax are the fluorescence values recorded after addition of triton-X-100 (0.1%, v/v) with either BAPTA (10 mM, Fmin) or CaCl2 (10 mM, Fmax). […] Fmax was determined for each well at the end of an experiment, and the average value was used for each column of 8 wells. Fmin was determined from parallel wells on each plate.
For measurements of [Ca^2+]i using an FDSS 7000 FLIPR (Hamamatsu), hBASMCs were seeded into 384-well plates (8000 cells per well) in 20 μL of SMGM-2 containing 5% serum. […] The exact composition of this ‘no-wash’ indicator kit is not disclosed by the manufacturer, but it contains fluo-4-AM and components that reduce background fluorescence. […]

[2] = system: intracellular cAMP in hBASMCs; assay: Intracellular cAMP in hBASMCs by mass spectrometry
Protocol: These methods were modified from. Confluent cultures of hBASMCs in 48-well plates were serum-deprived (6–24 h) and the medium was then replaced with HBSS (300 μL) containing HEPES (5 mM) and BSA (0.1%, w/v). Cells were stimulated at 20 °C, and reactions were terminated by aspiration of the medium and addition of acetonitrile (170 μL) containing dibutyryl cAMP (0.5 μM, to provide an internal standard). The plates were centrifuged (1500 xg, 15 min, 4 °C), supernatants (158 μL) were transferred to a 96-well, glass-coated plate (Thermo Scientific), and aqueous NH4HCO3 (pH 9.4, 93 μL) was added to each sample. After mixing and centrifugation (1500 xg, 15 min, 4 °C), samples were stored at 4 °C before analysis. Samples were analyzed by liquid chromatography tandem mass spectrometry (LC–MS/MS) using a Waters Acquity UPLC and a Sciex 5500 mass spectrometer equipped with an electrospray ionization source. ATP, ADP, AMP and cAMP were analyzed using a ZIC-pHILIC polymeric column (5-μm particle size, […]) maintained at 35 °C. Calibration standards were prepared in the lysis medium containing the internal standard, dibutyryl cAMP (0.5 μM). […] Samples were detected using multiple reaction monitoring in negative ion mode using the following parent-to-daughter mass transitions: cAMP m/z 327.9 → 133.9 (DP −100 V, CE −33 eV), AMP m/z 345.9 → 134.0 (DP −100 V, CE −50 eV), ADP m/z 426.0 → 134.0 (DP −100 V, CE −30 eV), ATP m/z 505.9 → 408.0 (DP −100 V, CE −35 eV), and internal standard dibutyryl cAMP m/z 468.1 → 175.0 (DP −100 V, CE −35 eV). Concentration-effect relationships were fitted to logistic equations for each experiment using GraphPad Prism (version 5, GraphPad Software, La Jolla, CA, USA), from which half-maximally effective drug concentrations (EC50), maximal responses, and Hill slopes were determined. For statistical analyses, maximal responses, Hill slopes and pEC50 (-logEC50) or pIC50 (-log of the half-maximal inhibitory concentration, IC50) values determined for individual experiments were pooled for statistical analysis. […]

[3] = system: intracellular Ca^2+ stores of hBASMCs; assay: Ca2+ content of intracellular stores, by ionomycin in Ca2+-free HBS; details: isoproterenol, forskolin 10 μM, 5 min, 2-APB 5 min, higher concentrations needed than for inhibition of GPCR-evoked signals

Structure (SMILES): CC(C)NC[C@H](O)c1ccc(O)c(O)c1 [isoproterenol, (−)-isoproterenol hydrochloride]
- effect on the Ca2+ signals evoked by carbachol after pertussis toxin [1]: remained insensitive to isoproterenol
- EC50 ([2]; Homo sapiens, 5 min, MS analyses, n = 3, read-out: pEC50 for cAMP accumulation (converted)): 132 nM
- intracellular cAMP associated with matched inhibition of Ca2+ signals, relative to IBMX ([2]; isoproterenol (5 min) vs IBMX (20 min), histamine 10 μM, cAMP by MS): ~5.4 fold
- effect on the Ca2+ content of the intracellular stores [3]: Neither isoproterenol nor forskolin (10 μM, 5 min) affected
